Among the data in US10106544B2, “1,2-dihydro-3H-pyrrolo[1,2-C]imidazol-3-one derivatives and their use as antibacterial agents” (priority 2014, dated 2018) are MIC values, retold here.

Converted amounts (≈) assume the structure as drawn.

The MIC is the smallest concentration in the dilution series that meets the test's criterion for growth inhibition.

Holding throughout (experiment): Bacterial growth minimal inhibitory concentration (microdilution, cation-adjusted Mueller-Hinton Broth)
Holding throughout (format): cell-based

For one experiment, the system named is P. aeruginosa ATCC27853. The following applies: Pseudomonas aeruginosa, ATCC27853, quinolone-sensitive strain; read-out: MIC for P. aeruginosa ATCC27853. As for the experimental part:
(§1) Minimal Inhibitory Concentrations (MICs; mg/L) were determined in cation-adjusted Mueller-Hinton Broth by a microdilution method following the description given in “Methods for Dilution Antimicrobial Susceptibility Tests for Bacteria that Grow Aerobically”, Approved standard, 7th ed., a Clinical and Laboratory Standards Institute (CLSI) Document M7-A7, Wayne, Pa., USA (2006).
(§2) All Example compounds were tested against several Gram-positive and Gram-negative bacteria. […] K. pneumoniae A-651 is a multiply-resistant strain (in particular quinolone-resistant), while E. coli ATCC25922 and P. aeruginosa ATCC27853 are quinolone-sensitive strains.

Another experiment relates to E. coli ATCC25922. The following applies: Escherichia coli, ATCC25922; quinolone-sensitive strain; read-out: MIC for E. coli ATCC25922. As for the experimental part: as §1, §2
For a further experiment, the system named is K. pneumoniae A-651. The following applies: Klebsiella pneumoniae, A651; multiply-resistant strain (in particular quinolone-resistant); read-out: MIC for K. Pneumoniae A-651. Here is the method: as §1, §2

Take `CN(C)CC#CC#Cc1cc2n(c1)C(=O)N(CC[C@](C)(C(=O)NO)S(C)(=O)=O)C2` [Example 46, (R)-4-(6-(5-(dimethylamino)penta-1,3-diyn-1-yl)-3-oxo-1H-pyrrolo[1,2-c]imidazol-2(3H)-yl)-N-hydroxy-2-methyl-2-(methylsulfonyl)butanamide]: the results for the minimal inhibitory concentration (MIC) in the experiment with P. aeruginosa ATCC27853, in the experiment with E. coli ATCC25922 and in the experiment with K. pneumoniae A-651 were 4 µg/mL (≈ 9.51 µM), 1 µg/mL (≈ 2.38 µM) and 2 µg/mL (≈ 4.76 µM), respectively.
As to `CC(C)Oc1ccc(-c2cc3n(c2)C(=O)N(CCC(C)(C(=O)NO)S(C)(=O)=O)C3)cc1F` (racemic) [RE10, (RS)-4-(6-(3-fluoro-4-isopropoxyphenyl)-3-oxo-1H-pyrrolo[1,2-c]imidazol-2(3H)-yl)-N-hydroxy-2-methyl-2-(methylsulfonyl)butanamide], the results for the MIC with P. aeruginosa ATCC27853, in the experiment with E. coli ATCC25922 and in the experiment with K. pneumoniae A-651 were 2 µg/mL (≈ 4.28 µM), 0.25 µg/mL (≈ 0.535 µM) and 8 µg/mL (≈ 17.1 µM), respectively.
Regarding `C[C@@](CCN1Cc2cc(-c3ccc(C(F)(F)F)cc3F)cn2C1=O)(C(=O)NO)S(C)(=O)=O` [Example 53, (R)-4-(6-(2-fluoro-4-(trifluoromethyl)phenyl)-3-oxo-1H-pyrrolo[1,2-c]imidazol-2(3H)-yl)-N-hydroxy-2-methyl-2-(methylsulfonyl)butanamide], the MIC was determined as 8 µg/mL (≈ 16.8 µM) in the experiment on P. aeruginosa ATCC27853, 0.25 µg/mL (≈ 0.524 µM) with E. coli ATCC25922 and 0.25 µg/mL (≈ 0.524 µM) in the experiment with K. pneumoniae A-651.
In the case of `CCOC(C)(C)c1ccc(C#Cc2cc3n(c2)C(=O)N(CCC(C)(C(=O)NO)S(C)(=O)=O)C3)cc1` (racemic) [RE2, (RS)-4-(6-((4-(2-ethoxypropan-2-yl)phenyl)ethynyl)-3-oxo-1H-pyrrolo[1,2-c]imidazol-2(3H)-yl)-N-hydroxy-2-methyl-2-(methylsulfonyl)butanamide], the results for the MIC in the experiment with P. aeruginosa ATCC27853, in the experiment with E. coli ATCC25922 and in the experiment with K. pneumoniae A-651 were 8 µg/mL (≈ 15.9 µM), 2 µg/mL (≈ 3.99 µM) and 2 µg/mL (≈ 3.99 µM), respectively.
As to `C[C@@](CCN1Cc2cc(C#CC#C[C@@H]3C[C@H]3CO)cn2C1=O)(C(=O)NO)S(C)(=O)=O` [Example 27, (R)-N-hydroxy-4-(6-(((1R,2R)-2-(hydroxymethyl)cyclopropyl)buta-1,3-diyn-1-yl)-3-oxo-1H-pyrrolo[1,2-c]imidazol-2(3H)-yl)-2-methyl-2-(methylsulfonyl)butanamide], the values for the MIC with P. aeruginosa ATCC27853, with E. coli ATCC25922 and in the experiment on K. pneumoniae A-651 were 0.5 µg/mL (≈ 1.15 µM), at most 0.063 µg/mL and 0.25 µg/mL (≈ 0.577 µM), respectively.
In the same order, the values of `COCCOc1ccc(-c2cc3n(c2)C(=O)N(CCC(C)(C(=O)NO)S(C)(=O)=O)C3)cc1` (racemic) [RE8, (RS)—N-hydroxy-4-(6-(4-(2-methoxyethoxy)phenyl)-3-oxo-1H-pyrrolo[1,2-c]imidazol-2(3H)-yl)-2-methyl-2-(methylsulfonyl)butanamide] are 8 µg/mL (≈ 17.2 µM), 2 µg/mL (≈ 4.3 µM) and 2 µg/mL (≈ 4.3 µM).
On to `C[C@@](CCN1Cc2cc(C#Cc3ccc(C4(CO)CC4)nc3)cn2C1=O)(C(=O)NO)S(C)(=O)=O` [Example 23, (R)-N-hydroxy-4-(6-((6-(1-(hydroxymethyl)cyclopropyl)pyridin-3-yl)ethynyl)-3-oxo-1H-pyrrolo[1,2-c]imidazol-2(3H)-yl)-2-methyl-2-(methylsulfonyl)butanamide], for which the MIC with P. aeruginosa ATCC27853 came to 4 µg/mL (≈ 8.22 µM); in the experiment with E. coli ATCC25922, 1 µg/mL (≈ 2.06 µM); in the experiment with K. pneumoniae A-651 it was 4 µg/mL (≈ 8.22 µM).
`COc1cccc(-c2cc3n(c2)C(=O)N(CC[C@](C)(C(=O)NO)S(C)(=O)=O)C3)c1F` [Example 28, (R)-4-(6-(2-fluoro-3-methoxyphenyl)-3-oxo-1H-pyrrolo[1,2-c]imidazol-2(3H)-yl)-N-hydroxy-2-methyl-2-(methylsulfonyl)butanamide]: the MIC in the experiment with P. aeruginosa ATCC27853 is 1 µg/mL (≈ 2.28 µM); with E. coli ATCC25922 it was at most 0.063 µg/mL; in the experiment on K. pneumoniae A-651 it was 0.25 µg/mL (≈ 0.569 µM).
On to `C[C@@](CCN1Cc2cc(C#CC#CCNS(C)(=O)=O)cn2C1=O)(C(=O)NO)S(C)(=O)=O` [Example 58, (R)-N-hydroxy-2-methyl-4-(6-(5-(methylsulfonamido)penta-1,3-diyn-1-yl)-3-oxo-1H-pyrrolo[1,2-c]imidazol-2(3H)-yl)-2-(methylsulfonyl)butanamide], for which the MIC was determined as 4 µg/mL (≈ 8.5 µM) in the experiment with P. aeruginosa ATCC27853, 4 µg/mL (≈ 8.5 µM) in the experiment with E. coli ATCC25922 and 8 µg/mL (≈ 17 µM) in the experiment on K. pneumoniae A-651.
